# Test results as given in the supplement of paper PMC10307832.
# Legend:
# Assay in all cases: relative viability (nuclei count vs DMSO), 5 days (fraction); higher = more cells survive
# [1] = system: ChaGo-K-1
# How it was run: (§1)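 Five library-drug doses in √10 steps were combined with a fixed anchor-drug dose, or a single drug was given alone, by pin tool to lung cancer cell lines in 1536-well plates the day after seeding. Nuclei were stained and counted after 5 days. Relative viability is the nuclei count in treated wells over that in vehicle wells, taken as the median of duplicate plates.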
# [2] = system: SK-MES-1
# How it was run: as §1
# [3] = system: H3255
# How it was run: as §1
# [4] = system: COR-L23
# How it was run: as §1
# [5] = system: NCI-H2023
# How it was run: as §1
# [6] = system: NCI-H2087
# How it was run: as §1
# [7] = system: NCI-H838
# How it was run: as §1
# [8] = system: NCI-H1944
# How it was run: as §1
# [9] = system: EMC-BAC-2
# How it was run: as §1
# [10] = system: LU99A
# How it was run: as §1
# [11] = system: HCC-827
# How it was run: as §1
# [12] = system: NCI-H2405
# How it was run: as §1
# [13] = system: EPLC-272H
# How it was run: as §1
# [14] = system: LCLC-103H
# How it was run: as §1
# [15] = system: NCI-H1651
# How it was run: as §1
# [16] = system: NCI-H650
# How it was run: as §1
# [17] = system: HCC-44
# How it was run: as §1
# [18] = system: NCI-H1395
# How it was run: as §1
# [19] = system: NCI-H520
# How it was run: as §1
# [20] = system: NCI-H1793
# How it was run: as §1
# [21] = system: NCI-H2085
# How it was run: as §1
smiles,measurement,setting,value
COc1cc2nccc(Oc3ccc(NC(=O)Nc4cc(C)on4)c(Cl)c3)c2cc1OC [Tivozanib] + O=C(c1cc(Cc2n[nH]c(=O)c3ccccc23)ccc1F)N1CCN(C(=O)C2CC2)CC1 [Olaparib] (partner 8 µM),relative viability,[1]; first compound 0.005 µM,0.386
same,relative viability,[1]; first compound 0.01581 µM,0.381
same,relative viability,[1]; first compound 0.05 µM,0.409
same,relative viability,[1]; first compound 0.1581 µM,0.412
same,relative viability,[1]; first compound 0.5 µM,0.37
same,relative viability,[2]; first compound 0.005 µM,0.661
same,relative viability,[2]; first compound 0.01581 µM,0.623
same,relative viability,[2]; first compound 0.05 µM,0.772
same,relative viability,[2]; first compound 0.1581 µM,0.62
same,relative viability,[2]; first compound 0.5 µM,0.583
same,relative viability,[3]; first compound 0.005 µM,0.544
same,relative viability,[3]; first compound 0.01581 µM,0.56
same,relative viability,[3]; first compound 0.05 µM,0.541
same,relative viability,[3]; first compound 0.1581 µM,0.602
same,relative viability,[3]; first compound 0.5 µM,0.513
same,relative viability,[4]; first compound 0.005 µM,0.324
same,relative viability,[4]; first compound 0.01581 µM,0.326
same,relative viability,[4]; first compound 0.05 µM,0.376
same,relative viability,[4]; first compound 0.1581 µM,0.363
same,relative viability,[4]; first compound 0.5 µM,0.298
same,relative viability,[5]; first compound 0.005 µM,0.469
same,relative viability,[5]; first compound 0.01581 µM,0.476
same,relative viability,[5]; first compound 0.05 µM,0.454
same,relative viability,[5]; first compound 0.1581 µM,0.481
same,relative viability,[5]; first compound 0.5 µM,0.454
same,relative viability,[6]; first compound 0.005 µM,0.542
same,relative viability,[6]; first compound 0.01581 µM,0.51
same,relative viability,[6]; first compound 0.05 µM,0.652
same,relative viability,[6]; first compound 0.1581 µM,0.683
same,relative viability,[6]; first compound 0.5 µM,0.713
same,relative viability,[7]; first compound 0.005 µM,0.785
same,relative viability,[7]; first compound 0.01581 µM,0.785
same,relative viability,[7]; first compound 0.05 µM,0.825
same,relative viability,[7]; first compound 0.1581 µM,0.828
same,relative viability,[7]; first compound 0.5 µM,0.773
same,relative viability,[8]; first compound 0.005 µM,0.331
same,relative viability,[8]; first compound 0.01581 µM,0.395
same,relative viability,[8]; first compound 0.05 µM,0.416
same,relative viability,[8]; first compound 0.1581 µM,0.406
same,relative viability,[8]; first compound 0.5 µM,0.376
same,relative viability,[9]; first compound 0.005 µM,0.492
same,relative viability,[9]; first compound 0.01581 µM,0.543
same,relative viability,[9]; first compound 0.05 µM,0.469
same,relative viability,[9]; first compound 0.1581 µM,0.472
same,relative viability,[9]; first compound 0.5 µM,0.358
same,relative viability,[10]; first compound 0.005 µM,0.275
same,relative viability,[10]; first compound 0.01581 µM,0.247
same,relative viability,[10]; first compound 0.05 µM,0.271
same,relative viability,[10]; first compound 0.1581 µM,0.231
same,relative viability,[10]; first compound 0.5 µM,0.27
same,relative viability,[11]; first compound 0.005 µM,0.572
same,relative viability,[11]; first compound 0.01581 µM,0.719
same,relative viability,[11]; first compound 0.05 µM,0.623
same,relative viability,[11]; first compound 0.1581 µM,0.612
same,relative viability,[11]; first compound 0.5 µM,0.623
same,relative viability,[12]; first compound 0.005 µM,0.831
same,relative viability,[12]; first compound 0.01581 µM,0.95
same,relative viability,[12]; first compound 0.05 µM,0.916
same,relative viability,[12]; first compound 0.1581 µM,1.01
same,relative viability,[12]; first compound 0.5 µM,0.669
same,relative viability,[13]; first compound 0.005 µM,0.63
same,relative viability,[13]; first compound 0.01581 µM,0.969
same,relative viability,[13]; first compound 0.05 µM,0.741
same,relative viability,[13]; first compound 0.1581 µM,0.783
same,relative viability,[13]; first compound 0.5 µM,0.659
same,relative viability,[14]; first compound 0.005 µM,0.785
same,relative viability,[14]; first compound 0.01581 µM,0.783
same,relative viability,[14]; first compound 0.05 µM,0.734
same,relative viability,[14]; first compound 0.1581 µM,0.791
same,relative viability,[14]; first compound 0.5 µM,0.853
same,relative viability,[15]; first compound 0.005 µM,0.187
same,relative viability,[15]; first compound 0.01581 µM,0.188
same,relative viability,[15]; first compound 0.05 µM,0.198
same,relative viability,[15]; first compound 0.1581 µM,0.203
same,relative viability,[15]; first compound 0.5 µM,0.158
same,relative viability,[16]; first compound 0.005 µM,0.321
same,relative viability,[16]; first compound 0.01581 µM,0.359
same,relative viability,[16]; first compound 0.05 µM,0.42
same,relative viability,[16]; first compound 0.1581 µM,0.401
same,relative viability,[16]; first compound 0.5 µM,0.323
same,relative viability,[17]; first compound 0.005 µM,0.967
same,relative viability,[17]; first compound 0.01581 µM,0.911
same,relative viability,[17]; first compound 0.05 µM,0.998
same,relative viability,[17]; first compound 0.1581 µM,0.949
same,relative viability,[17]; first compound 0.5 µM,0.999
same,relative viability,[18]; first compound 0.005 µM,0.421
same,relative viability,[18]; first compound 0.01581 µM,0.443
same,relative viability,[18]; first compound 0.05 µM,0.476
same,relative viability,[18]; first compound 0.1581 µM,0.484
same,relative viability,[18]; first compound 0.5 µM,0.422
same,relative viability,[19]; first compound 0.005 µM,0.42
same,relative viability,[19]; first compound 0.01581 µM,0.354
same,relative viability,[19]; first compound 0.05 µM,0.334
same,relative viability,[19]; first compound 0.1581 µM,0.315
same,relative viability,[19]; first compound 0.5 µM,0.301
same,relative viability,[20]; first compound 0.005 µM,0.804
same,relative viability,[20]; first compound 0.01581 µM,0.971
same,relative viability,[20]; first compound 0.05 µM,1.03
same,relative viability,[20]; first compound 0.5 µM,0.879
same,relative viability,[21]; first compound 0.005 µM,0.712
same,relative viability,[21]; first compound 0.01581 µM,0.848
same,relative viability,[21]; first compound 0.05 µM,0.876
same,relative viability,[21]; first compound 0.1581 µM,0.946
same,relative viability,[21]; first compound 0.5 µM,0.734
